Results taken from BindingDB's records for doi:10.1074/jbc.M114.556480 (Yale University, 2014).
Non-standard residues stand in square brackets, D forms with d. Residues, ends and D or L forms follow the SMILES beside them. pY = N[C@@H](Cc1ccc(OP(=O)(O)O)cc1)C(=O)O

Molecular target: T1, Tyrosine-protein kinase ABL1 [131-238] (Human, UniProt P00519)
T1 construct: 131-238
T1 sequence (P00519 whole entry): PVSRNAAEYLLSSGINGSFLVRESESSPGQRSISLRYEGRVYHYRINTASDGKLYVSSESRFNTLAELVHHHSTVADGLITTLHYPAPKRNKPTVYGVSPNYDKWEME
Test: Fluorescence Polarization Assay
Settings: pH 7.25
Method: SH2 domains were dialyzed into binding buffer (50 mM Hepes, pH 7.25, 150 mM NaCl, 0.01% Nonidet P-40, 5% glycerol) and a 30-μl volume serially diluted into pre-chilled 384-well low flange black flat bottom non-binding microplates (Corning) while on ice. 5 μl of 35 nM fluorescent peptide dissolved in binding buffer was added to each well (final concentration 5 nM), mixed 5 times by pipetting, and plates were incubated at 4 °C for 40 min. Fluorescence polarization experiments were performed with an Analyst AD (Molecular Devices, Sunnyvale, CA) spectrofluorimeter. Each well was excited using 485 nm light and emission was read at 530 nm. Fluorescence polarization was measured 1 mm from the bottom of each well with an integration time of 560 ms. All experiments were conducted in triplicate.

Q: With `C[C@@H](O)[C@H](NC(=O)[C@H](CC(=O)O)NC(=O)[C@H](CC(=O)O)NC(=O)[C@@H](N)CCC(=O)O)C(=O)N[C@@H](Cc1ccc(OP(=O)(O)O)cc1)C(=O)N[C@@H](CC(=O)O)C(=O)NCC(=O)N[C@@H](Cc1ccc(O)cc1)C(=O)N[C@@H](CCC(=O)O)C(=O)O` [EDDTpYDGYE] (H-EDDT[pY]DGYE-OH) as the molecule, how does the Kd read?
A: > 61.9 µM

Q: With `CC(C)[C@H](NC(=O)[C@@H]1CCCN1C(=O)[C@H](CCC(=O)O)NC(=O)[C@@H](N)CO)C(=O)N[C@@H](Cc1ccc(OP(=O)(O)O)cc1)C(=O)N[C@@H](CCC(=O)O)C(=O)N[C@H](C(=O)N[C@H](C(=O)N[C@@H](CCC(=O)O)C(=O)O)[C@@H](C)O)[C@@H](C)O` [SEPVpYETTE] (H-SEPV[pY]ETTE-OH) as the molecule, how does the Kd read?
A: 3.27 µM

Q: Which Kd does the source give for `CC[C@H](C)[C@H](NC(=O)[C@@H]1CCCN1C(=O)[C@H](CO)NC(=O)[C@@H](N)CO)C(=O)N[C@@H](Cc1ccc(OP(=O)(O)O)cc1)C(=O)N[C@@H](CCC(=O)O)C(=O)N[C@@H](CC(=O)O)C(=O)N[C@@H](C)C(=O)N[C@@H](C)C(=O)O` [SSPIpYEDAA] (H-SSPI[pY]EDAA-OH) here?
A: 3.33 µM
